This is an account of results in ChEMBL document CHEMBL1201862, “PubChem BioAssay data set” (2004).

Molecules are shown by their SMILES.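 How tested: cells in 96-well plates exposed to compound for 48 hours at five concentrations. The concentration for 50% growth inhibition is given as GI50.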 Calls of active or inactive are those of the source. Rule as the data show it: active = GI50 up to about 1.1 µM and inactive = higher.

Test systems include SF-268; DLD-1; UACC-62; MDA-MB-435; HCC 2998; SNB-75; KM12; SF-295; HCT-15; T47D; DU-145; HOP-92; SK-MEL-2; OVCAR-4; SK-MEL-5; HCT-116; MDA-N; UACC-257; RPMI-8226; BT-549.
Common to all, as to experiment: growth of human tumour cells (NCI), 48 h

For the molecule `COc1ccccc1/C=C1\CCC(CN2CCOCC2)C1=O` (stereo not given), the GI50 in the assay with SF-268 was 16 µM (inactive); in the assay on DLD-1 it was 3.84 µM (inactive); with UACC-62, 16.4 µM (inactive); in the assay with MDA-MB-435 it was 7.13 µM (inactive); with HCC 2998 it was 14.9 µM (inactive); in the assay on SNB-75, 20.2 µM (inactive). For the same molecule, the GI50 with KM12 was 3.71 µM (inactive); in the assay with SF-295, 19.2 µM (inactive); in the assay with HCT-15, 4.24 µM; with T47D, 1.84 µM (inactive); in the assay on DU-145, 17.3 µM (inactive); with HOP-92, 18.4 µM (inactive). Further, the GI50 with SK-MEL-2 was 15.7 µM (inactive); in the assay with OVCAR-4, 16.8 µM (inactive); in the assay on SK-MEL-5, 15 µM (inactive); with HCT-116 it was 6.92 µM (inactive); in the assay on MDA-N it was 13.8 µM (inactive); in the assay with UACC-257, 11.6 µM (inactive). Also, the GI50 in the assay on RPMI-8226 is 1.32 µM (inactive); in the assay with BT-549, 12.6 µM (inactive).
As for `O=c1c2cc(Cl)ccc2n2nnc3ccc(NCCNCCO)c1c32`, the GI50 in the assay on SF-268 is 2.74 µM (inactive); in the assay on DLD-1, 1.2 µM (inactive); in the assay with UACC-62, 2.31 µM (inactive); with MDA-MB-435, 1.12 µM (inactive); in the assay on HCC 2998, 1.37 µM (inactive); with SNB-75, 0.0753 µM (active). Further, the GI50 in the assay on KM12 was 1.09 µM (active); in the assay with SF-295, 0.689 µM (active); in the assay on HCT-15, 0.718 µM; in the assay on T47D, 5.15 µM (inactive); with DU-145, 3.44 µM (inactive); in the assay on HOP-92, 2.02 µM (inactive). Also, the GI50 was 2.09 µM (inactive) in the assay on SK-MEL-2; 1.01 µM (active) in the assay on OVCAR-4; 1.48 µM (inactive) in the assay on SK-MEL-5; 0.419 µM (active) in the assay with HCT-116; 1.1 µM (active) in the assay with MDA-N; 1.78 µM (inactive) in the assay on UACC-257. Further, the GI50 was 1.53 µM (inactive) in the assay with RPMI-8226 and 1.79 µM (inactive) with BT-549.
